In brackets after ≈: the same amount, converted by molar mass.
Assays:
[1] = Metabolic stability in human liver microsomes (HLM); details: human, HLM CLint, n = 1 or average of n = 2-3
Protocol: Metabolic stability in HLM was measured as described in J Comput Aided Mol Des 2015, 29, 795.

hFAP (M39-A757) = hFAP (M39-A757) (Homo sapiens (Human), UniProt Q12884); assay: hFAP binding assay (surface plasmon resonance); details: SPR, 20° C.; for hFAP Binding assay k(off) / hFAP Binding assay k(on): single cycle kinetics; for Kd: n = 1 or geometric mean n = 2-4
Kinetic solubility = details: kinetic from dmso stock, Solubility, kinetic solubility; n = 1 or average of n = 2-3
Protocol: Kinetic solubility was measured as described in Comput Aided Mol Des 2015, 29, 795.

[2] = target: human Fibroblast activation protein alpha (hFAP) (Homo sapiens (Human), UniProt Q12884); assay: hFAP inhibition assay (tight binders); assay type: biochemical; details: Ala-Pro-AMC 20 μM, n = 1 or geometric mean n = 2-6; further: hFAP 2.4 pM
Protocol: The plates were read on a PHERAstar® reader with excitation 340 nm and emission 460 nm. Data were analyzed in Genedata Screener®. IC50 values were determined by plotting % inhibition versus log compound concentration and using a one site dose response model.

Caco-2 cell permeability = details: human
Protocol: Caco-2 cell permeability was measured as described in Mol Pharm 2017, 14, 1601.

[3] = Metabolic stability in rat hepatocytes (rHep); details: n = 1 or geometric mean of n = 2-3
[4] = target: Prolyl endopeptidase, Prolyl Oligopeptidase (hPREP) (Homo sapiens (Human), UniProt P48147); assay: hPrep inhibition assay; assay type: biochemical; details: hPREP 0.6 nM, Z-Gly-Pro-amino-methylcoumarin 50 μM; read-out: PREP IC50
Method in brief: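 Fluorogenic read-out (340 nm excitation, 460 nm emission) after 20 min at rt, using 50 μM final Z-Gly-Pro-aminomethylcoumarin and 0.6 nM final enzyme, following 15 min compound preincubation. Buffer pH 7.5 with glutathione and Triton X-100. IC50 via one-site model on % inhibition vs log concentration.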

Chain of Prolyl endopeptidase, Prolyl Oligopeptidase (hPREP) (P48147 whole entry): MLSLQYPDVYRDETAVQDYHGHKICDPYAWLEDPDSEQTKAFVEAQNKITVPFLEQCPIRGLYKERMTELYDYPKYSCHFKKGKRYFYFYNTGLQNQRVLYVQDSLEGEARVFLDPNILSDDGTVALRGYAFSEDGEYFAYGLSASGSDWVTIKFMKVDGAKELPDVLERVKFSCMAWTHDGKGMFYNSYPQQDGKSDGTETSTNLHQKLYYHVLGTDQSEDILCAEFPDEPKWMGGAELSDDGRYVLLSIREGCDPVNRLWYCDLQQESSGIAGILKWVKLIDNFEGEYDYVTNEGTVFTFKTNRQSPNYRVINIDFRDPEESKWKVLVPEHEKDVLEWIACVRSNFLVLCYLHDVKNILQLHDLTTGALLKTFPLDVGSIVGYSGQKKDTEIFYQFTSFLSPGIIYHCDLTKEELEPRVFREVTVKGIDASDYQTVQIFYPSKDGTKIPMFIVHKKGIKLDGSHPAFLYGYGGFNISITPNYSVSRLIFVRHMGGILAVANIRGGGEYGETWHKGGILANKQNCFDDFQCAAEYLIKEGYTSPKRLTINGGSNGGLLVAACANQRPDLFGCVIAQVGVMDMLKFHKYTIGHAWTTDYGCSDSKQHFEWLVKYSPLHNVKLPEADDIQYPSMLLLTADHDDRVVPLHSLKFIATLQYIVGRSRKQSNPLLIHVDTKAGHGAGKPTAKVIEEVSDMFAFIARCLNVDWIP
Chain of hFAP (M39-A757) (Q12884 39-757): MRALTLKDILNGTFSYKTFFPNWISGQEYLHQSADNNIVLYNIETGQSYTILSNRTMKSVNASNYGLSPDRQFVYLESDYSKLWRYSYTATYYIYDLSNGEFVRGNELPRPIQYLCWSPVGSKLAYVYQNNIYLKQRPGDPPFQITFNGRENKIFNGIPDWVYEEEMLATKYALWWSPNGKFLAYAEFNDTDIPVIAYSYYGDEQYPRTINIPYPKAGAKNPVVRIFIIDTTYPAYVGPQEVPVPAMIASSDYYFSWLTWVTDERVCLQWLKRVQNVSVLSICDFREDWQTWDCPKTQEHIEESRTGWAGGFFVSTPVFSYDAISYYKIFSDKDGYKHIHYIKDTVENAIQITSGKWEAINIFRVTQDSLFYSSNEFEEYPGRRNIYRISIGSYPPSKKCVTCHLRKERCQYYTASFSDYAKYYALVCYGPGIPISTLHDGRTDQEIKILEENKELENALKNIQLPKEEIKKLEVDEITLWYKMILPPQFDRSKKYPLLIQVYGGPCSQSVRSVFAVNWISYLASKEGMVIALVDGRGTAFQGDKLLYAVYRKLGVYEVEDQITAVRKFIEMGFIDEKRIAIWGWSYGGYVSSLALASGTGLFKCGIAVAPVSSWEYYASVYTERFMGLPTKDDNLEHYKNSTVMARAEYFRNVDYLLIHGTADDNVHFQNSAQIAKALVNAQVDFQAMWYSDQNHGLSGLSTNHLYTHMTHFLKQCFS
Chain of human Fibroblast activation protein alpha (hFAP) (Q12884 38-760): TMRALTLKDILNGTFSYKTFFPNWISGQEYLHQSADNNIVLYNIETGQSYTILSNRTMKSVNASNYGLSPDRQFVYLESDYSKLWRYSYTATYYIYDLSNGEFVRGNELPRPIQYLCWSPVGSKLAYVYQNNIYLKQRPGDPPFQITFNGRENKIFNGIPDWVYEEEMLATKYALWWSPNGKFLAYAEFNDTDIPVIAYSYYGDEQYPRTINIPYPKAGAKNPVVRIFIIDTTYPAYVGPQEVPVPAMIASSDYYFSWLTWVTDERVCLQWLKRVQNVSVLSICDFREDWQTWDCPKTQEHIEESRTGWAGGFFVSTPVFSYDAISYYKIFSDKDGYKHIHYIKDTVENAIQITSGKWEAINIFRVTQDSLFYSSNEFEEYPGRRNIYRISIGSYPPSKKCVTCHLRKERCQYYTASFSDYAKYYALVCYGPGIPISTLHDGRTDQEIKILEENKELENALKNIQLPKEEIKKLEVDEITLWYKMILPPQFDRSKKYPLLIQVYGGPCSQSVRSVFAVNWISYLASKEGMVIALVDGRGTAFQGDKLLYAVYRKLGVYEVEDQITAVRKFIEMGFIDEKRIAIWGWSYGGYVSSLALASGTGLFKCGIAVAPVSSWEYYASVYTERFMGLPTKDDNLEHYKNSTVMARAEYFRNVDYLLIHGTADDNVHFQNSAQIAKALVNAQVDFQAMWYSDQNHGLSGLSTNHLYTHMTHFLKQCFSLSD

microsomal CLint [1] | hFAP Binding assay k(off) (hFAP (M39-A757)) | hFAP Binding assay k(on) (hFAP (M39-A757)) | Kd (hFAP (M39-A757)) | solubility (Kinetic solubility) | IC50 [2] | Papp A→B (Caco-2 cell permeability) | Papp B→A (Caco-2 cell permeability) | efflux ratio (Caco-2 cell permeability) | rHep CLint [3] | IC50 [4] | Papp (Caco-2 cell permeability) | SMILES
20 µL/min/mg | 0.00011 s⁻¹ | 2900000 M⁻¹ s⁻¹ | 0.038 nM | 38 µM | 0.056 nM | 3.4 ×10⁻⁶ cm/s | 36 ×10⁻⁶ cm/s | 11 | 22 μL/min/1E6 | 410 nM | – | C[C@]1(F)CCN(c2ccc3nccc(C(=O)NCC(=O)N4CSC[C@H]4C#N)c3c2)C1 (mixture of isomers) [Example 198, N-(2-((R)-4-Cyanothiazolidin-3-yl)-2-oxoethyl)-6-((RS)-3-fluoro-3-methylpyrrolidin-1-yl)quinoline-4-carboxamide]
< 3 µL/min/mg | 0.000068 s⁻¹ | 3000000 M⁻¹ s⁻¹ | 0.023 nM | 50 µM | 0.073 nM | – | – | – | <1 μL/min/1E6 | 670 nM | 1.2 ×10⁻⁶ cm/s | N#C[C@@H]1CSCN1C(=O)CNC(=O)c1ccnc2ccc(N3C[C@H](O)C(F)(F)C3)cc12 (mixture of isomers) [Example 224, N-(2-((R)-4-Cyanothiazolidin-3-yl)-2-oxoethyl)-6-((RS)-3,3-difluoro-4-hydroxypyrrolidin-1-yl)quinoline-4-carboxamide]
< 3 µL/min/mg | 0.00010 s⁻¹ | 1800000 M⁻¹ s⁻¹ | 0.059 nM | 90 µM (≈ 38.1 µg/mL) | < 0.025 nM | – | – | – | <1 μL/min/1E6 | 610 nM | 4.8 ×10⁻⁶ cm/s | C[C@H]1CCN(c2ccc3nccc(C(=O)NCC(=O)N4CSC[C@H]4C#N)c3c2)C1=O (single isomer, unassigned) [Example 201, N-(2-((R)-4-Cyanothiazolidin-3-yl)-2-oxoethyl)-6-((R*)-3-methyl-2-oxopyrrolidin-1-yl)quinoline-4-carboxamide]
7.7 µL/min/mg | 0.000070 s⁻¹ | 1600000 M⁻¹ s⁻¹ | 0.043 nM | 140 µM (≈ 59.3 µg/mL) | 0.044 nM | – | – | – | <1 μL/min/1E6 | 550 nM | 5.2 ×10⁻⁶ cm/s | C[C@@H]1CCN(c2ccc3nccc(C(=O)NCC(=O)N4CSC[C@H]4C#N)c3c2)C1=O (single isomer, unassigned) [Example 202, N-(2-((R)-4-Cyanothiazolidin-3-yl)-2-oxoethyl)-6-((R*)-3-methyl-2-oxopyrrolidin-1-yl)quinoline-4-carboxamide]
50 µL/min/mg | 0.000094 s⁻¹ | 1200000 M⁻¹ s⁻¹ | 0.079 nM | 55 µM (≈ 24.6 µg/mL) | 0.058 nM | 1.6 ×10⁻⁶ cm/s | 28 ×10⁻⁶ cm/s | 18 | 14 μL/min/1E6 | 1100 nM | – | N#C[C@@H]1CSCN1C(=O)CNC(=O)c1ccnc2ccc(N3CCOC(F)(F)C3)cc12 [Example 4, (R)—N-(2-(4-Cyanothiazolidin-3-yl)-2-oxoethyl)-6-(2,2-difluoromorpholino)-quinoline-4-carboxamide]
93 µL/min/mg | – | – | 0.049 nM | 11 µM (≈ 5.32 µg/mL) | 0.06 nM | 1.9 ×10⁻⁶ cm/s | 32 ×10⁻⁶ cm/s | 17 | 32 μL/min/1E6 | 220 nM | – | N#C[C@@H]1CSCN1C(=O)CNC(=O)c1ccnc2ccc(N3CC(F)(F)OC(F)(F)C3)cc12 [Example 5, (R)—N-(2-(4-Cyanothiazolidin-3-yl)-2-oxoethyl)-6-(2,2,6,6-tetrafluoromorpholino)quinoline-4-carboxamide]
31 µL/min/mg | 0.000075 s⁻¹ | 740000 M⁻¹ s⁻¹ | 0.1 nM | > 1000 µM | 0.16 nM | 0.34 ×10⁻⁶ cm/s | 20 ×10⁻⁶ cm/s | 59 | 2.6 μL/min/1E6 | 510 nM | – | C[C@@H]1CN(c2ccc3nccc(C(=O)NCC(=O)N4CSC[C@H]4C#N)c3c2)C[C@H](C)[C@@H]1O [Example 7, N-(2-((R)-4-Cyanothiazolidin-3-yl)-2-oxoethyl)-6-((3S,4S,5R)-4-hydroxy-3,5-dimethylpiperidin-1-yl)quinoline-4-carboxamide]
6.4 µL/min/mg | 0.000064 s⁻¹ | 1900000 M⁻¹ s⁻¹ | 0.038 nM | 830 µM (≈ 363 µg/mL) | 0.065 nM | 0.29 ×10⁻⁶ cm/s | 19 ×10⁻⁶ cm/s | 65 | <1 μL/min/1E6 | 510 nM | – | CC1(C)CCN(c2ccc3nccc(C(=O)NCC(=O)N4CSC[C@H]4C#N)c3c2)C1=O [Example 12, (R)—N-(2-(4-Cyanothiazolidin-3-yl)-2-oxoethyl)-6-(3,3-dimethyl-2-oxopyrrolidin-1-yl)quinoline-4-carboxamide]
< 3 µL/min/mg | 0.000064 s⁻¹ | 1300000 M⁻¹ s⁻¹ | 0.05 nM | 830 µM (≈ 352 µg/mL) | 0.08 nM | 0.15 ×10⁻⁶ cm/s | 2.4 ×10⁻⁶ cm/s | 16 | <1 μL/min/1E6 | 1200 nM | – | N#C[C@@H]1CSCN1C(=O)CNC(=O)c1ccnc2ccc(N3CCCCC3=O)cc12 [Example 14, (R)—N-(2-(4-Cyanothiazolidin-3-yl)-2-oxoethyl)-6-(2-oxopiperidin-1-yl)-quinoline-4-carboxamide]
43 µL/min/mg | 0.000046 s⁻¹ | 490000 M⁻¹ s⁻¹ | 0.11 nM | 890 µM (≈ 402 µg/mL) | 0.12 nM | 0.3 ×10⁻⁶ cm/s | 13 ×10⁻⁶ cm/s | 45 | 11 μL/min/1E6 | 2100 nM | – | CC1(C)CCCN(c2ccc3nccc(C(=O)NCC(=O)N4CSC[C@H]4C#N)c3c2)C1=O [Example 15, (R)—N-(2-(4-Cyanothiazolidin-3-yl)-2-oxoethyl)-6-(3,3-dimethyl-2-oxopiperidin-1-yl)quinoline-4-carboxamide]
9 µL/min/mg | 0.000024 s⁻¹ | 2300000 M⁻¹ s⁻¹ | 0.0063 nM | 930 µM (≈ 394 µg/mL) | 0.05 nM | 0.77 ×10⁻⁶ cm/s | 17 ×10⁻⁶ cm/s | 21 | 6.7 μL/min/1E6 | 490 nM | – | N#C[C@@H]1CSCN1C(=O)CNC(=O)c1ccnc2ccc(N3C[C@@H]4C[C@H]3CO4)cc12 [Example 75, 6-((1S,4S)-2-Oxa-5-azabicyclo[2.2.1]heptan-5-yl)-N-(2-((R)-4-cyano-thiazolidin-3-yl)-2-oxoethyl)quinoline-4-carboxamide]
4.2 µL/min/mg | 0.000052 s⁻¹ | 1000000 M⁻¹ s⁻¹ | 0.051 nM | > 1000 µM | 0.08 nM | 0.64 ×10⁻⁶ cm/s | 20 ×10⁻⁶ cm/s | 31 | 3.5 μL/min/1E6 | 510 nM | – | N#C[C@@H]1CSCN1C(=O)CNC(=O)c1ccnc2ccc(N3C[C@H]4C[C@@H]3CO4)cc12 [Example 76, 6-((1R,4R)-2-Oxa-5-azabicyclo[2.2.1]heptan-5-yl)-N-(2-((R)-4-cyano-thiazolidin-3-yl)-2-oxoethyl)quinoline-4-carboxamide]
< 3 µL/min/mg | – | – | – | 240 µM (≈ 102 µg/mL) | 0.091 nM | 0.13 ×10⁻⁶ cm/s | 9.5 ×10⁻⁶ cm/s | 74 | <1 μL/min/1E6 | 1000 nM | – | C[C@@]1(O)CCN(c2ccc3nccc(C(=O)NCC(=O)N4CSC[C@H]4C#N)c3c2)C1 [Example 167, N-(2-((R)-4-Cyanothiazolidin-3-yl)-2-oxoethyl)-6-((R)-3-hydroxy-3-methylpyrrolidin-1-yl)quinoline-4-carboxamide]
57 µL/min/mg | 0.000026 s⁻¹ | 2500000 M⁻¹ s⁻¹ | 0.01 nM | < 1.6 µM | 0.076 nM | – | – | – | 51 μL/min/1E6 | 86 nM | – | N#C[C@@H]1CSCN1C(=O)CNC(=O)c1ccnc2ccc(N3CCC(F)(c4ccccc4)CC3)cc12 [Example 223, (R)—N-(2-(4-Cyanothiazolidin-3-yl)-2-oxoethyl)-6-(4-fluoro-4-phenyl-piperidin-1-yl)quinoline-4-carboxamide]
< 3 µL/min/mg | – | – | – | > 1000 µM | 0.078 nM | 34 ×10⁻⁶ cm/s | 17 ×10⁻⁶ cm/s | – | 2.8 μL/min/1E6 | 600 nM | 2 ×10⁻⁶ cm/s | N#C[C@@H]1CSCN1C(=O)CNC(=O)c1ccnc2ccc(N3CCC(=O)CC3)cc12 [Example 230, (R)—N-(2-(4-cyanothiazolidin-3-yl)-2-oxoethyl)-6-(4-oxopiperidin-1-yl)quinoline-4-carboxamide]

From patent publication US20230312550A1, “N-(2-(4-CYANOTHIAZOLIDIN-3-YL)-2-OXOETHYL)-QUINOLINE-4-CARBOXAMIDES” (AstraZeneca AB, priority 2020, published 2023)
